Target: T1, SHP2 (Homo sapiens, UniProt Q06124)
T1 construct: gene PTPN11; recombinant hSHP2-FC (R&D Systems, 1894-SH-100)
T1 sequence (Q06124 2-593): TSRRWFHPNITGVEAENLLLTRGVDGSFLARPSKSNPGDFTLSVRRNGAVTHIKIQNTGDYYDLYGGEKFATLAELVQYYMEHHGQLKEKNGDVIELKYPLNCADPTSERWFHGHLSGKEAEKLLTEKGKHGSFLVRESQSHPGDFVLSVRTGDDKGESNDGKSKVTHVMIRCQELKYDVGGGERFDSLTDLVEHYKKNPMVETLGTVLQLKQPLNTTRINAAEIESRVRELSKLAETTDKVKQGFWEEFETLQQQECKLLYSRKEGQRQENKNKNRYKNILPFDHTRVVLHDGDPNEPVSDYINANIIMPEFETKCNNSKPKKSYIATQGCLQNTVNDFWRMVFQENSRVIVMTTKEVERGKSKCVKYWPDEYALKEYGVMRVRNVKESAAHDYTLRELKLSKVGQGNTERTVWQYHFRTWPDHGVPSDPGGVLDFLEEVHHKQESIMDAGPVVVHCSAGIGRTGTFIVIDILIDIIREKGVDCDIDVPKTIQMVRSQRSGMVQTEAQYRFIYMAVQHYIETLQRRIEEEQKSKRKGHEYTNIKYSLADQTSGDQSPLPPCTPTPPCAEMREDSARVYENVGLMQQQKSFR
T1 sequence (Q15116 235-264 partner): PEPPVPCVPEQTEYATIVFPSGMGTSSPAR
Test: ELISA: MB blocks binding of purified recombinant SHP2-Fc to coated phospho-ITSM PD-1 peptide; supported by co-IP and split-luciferase complementation in cells
Format: biochemical

## CN(C)c1ccc2nc3ccc(N(C)C)cc3[s+]c2c1 [MB, 3,7‐bis(dimethylamino)‐5‐phenothiazinium chloride]
  ELISA: MB blocks binding of purified recombinant SHP2-Fc to coated phospho-ITSM: MB dose‐dependently blocked the binding of SHP2 protein to coated Pep‐ITSM‐p248Y, unequivocally showing that MB directly blocked interaction

From article PMC7278553, “Blocking interaction between SHP2 and PD‐1 denotes a novel opportunity for developing PD‐1 inhibitors” (EMBO Molecular Medicine, 2020)
